{
  "source": "patent US20020193425A1",
  "about": "“Cancer chemopreventative compounds and compositions and methods of treating cancers” (priority 2001, published 2002)",
  "key": {"[1]": {"test": "Cytotoxicity, viability by Trypan blue exclusion", "settings": "human, HL-60 cells, Cytotoxicity (IC50, ng/ml), four days", "quoted_text": "(§3) HL-60, K562, U937, Reh and Daudi cells were obtained from the American Type Culture Collection (Rockville, Md.). Kasumi-1, NB4, BV173, SUPB13, and RS4;11 cells were provided by the Section of Hematology/Oncology, University of Illinois College of Medicine, Chicago, Ill. All cell lines were maintained in suspension culture using RPMI 1640 medium supplemented with 10% heat-inactivated fetal bovine serum, 100 units of penicillin/ml and 100 μg of streptomycin/ml at 37° C. in a humidified atmosphere of 5% CO2 in air. All cells were routinely tested for mycoplasma contamination.\n(§4) Cellular viability was monitored by Trypan blue exclusion. Inhibition of [3H]thymidine incorporation into DNA was determined to assess the level of cell proliferation as well as DNA synthesis inhibition. […] The filters were counted using a Microbeta™ liquid scintillation counter (Wallac, Turku, Finland) with scintillation fluid. Finally, the percentage of [3H]thymidine incorporation per 10^6 cells was calculated by dividing the dpm of sample-treated cells by the dpm of DMSO-treated cells.\n(§5) ^aViability was determined by Trypan blue exclusion in duplicate samples. […] Results are expressed as median inhibitory cell concentrations of two independent experiments (±standard deviations)."}, "[2]": {"tested_on": "HL-60", "test": "Cytotoxicity, viability by Trypan blue exclusion", "settings": "four days", "quoted_text": "as §3, §4, §5"}, "[3]": {"test": "Cytotoxicity, viability by Trypan blue exclusion", "settings": "human, Reh cells, Cytotoxicity (IC50, ng/ml), four days", "quoted_text": "(§6) All cell lines were maintained in suspension culture using RPMI 1640 medium supplemented with 10% heat-inactivated fetal bovine serum, 100 units of penicillin/ml and 100 μg of streptomycin/ml at 37° C. in a humidified atmosphere of 5% CO2 in air.\n(§7) Cellular viability was monitored by Trypan blue exclusion.\nas §5"}, "[4]": {"tested_on": "Reh", "test": "Cytotoxicity, viability by Trypan blue exclusion", "settings": "four days", "quoted_text": "as §6, §7, §5"}, "[5]": {"tested_on": "BV173", "test": "Cell cycle effects, DNA content by flow cytometry", "assay_type": "cell-based", "settings": "Brusatol (25 ng/ml), 24 h", "experimental": "(§1) About 10^6 cells from each sample were collected and washed twice with ice-cold PBS, fixed in 70% ethanol, and stored at 4° C. until analysis. The cells were stained with PI (50 μg/ml), treated with DNase-free RNase (10 μg/ml), and subjected to DNA content analysis using an EPICS Coulter flow cytometer. At least 10,000 cells were counted for each sample. The percentage of apoptotic cells was calculated by measuring the area under the sub-diploid (DNA <2 N) peak in the plot of cell number against cellular DNA content.\n(§2) Cells were treated with solvent or brusatol (25 ng/ml) for 24 h, fixed in ethanol and stained with PI for flow cytometric analysis as described under “Materials and methods”. At least 10,000 cells were counted. Results are presented as the mean of triplicate samples (±standard deviation). G1=Gap1, S=Synthesis, G2/M=Gap2+Mitosis, Ap=sub-G1 apoptotic peak."}, "[6]": {"tested_on": "NB4", "test": "Cell cycle effects, DNA content by flow cytometry", "assay_type": "cell-based", "settings": "Brusatol (25 ng/ml), 24 h", "experimental": "as §1, §2"}, "[7]": {"tested_on": "K562", "test": "Cell cycle effects, DNA content by flow cytometry", "assay_type": "cell-based", "settings": "Brusatol (25 ng/ml), 24 h", "experimental": "as §1, §2"}, "[8]": {"tested_on": "RS4,11", "test": "Cell cycle effects, DNA content by flow cytometry", "assay_type": "cell-based", "settings": "Brusatol (25 ng/ml), 24 h", "experimental": "as §1, §2"}, "[9]": {"tested_on": "U937", "test": "Cell cycle effects, DNA content by flow cytometry", "assay_type": "cell-based", "settings": "Brusatol (25 ng/ml), 24 h", "experimental": "as §1, §2"}, "[10]": {"tested_on": "SUPB13", "test": "Cell cycle effects, DNA content by flow cytometry", "assay_type": "cell-based", "settings": "Brusatol (25 ng/ml), 24 h", "experimental": "as §1, §2"}, "[11]": {"tested_on": "Kasumi-1", "test": "Cell cycle effects, DNA content by flow cytometry", "assay_type": "cell-based", "settings": "Brusatol (25 ng/ml), 24 h", "experimental": "as §1, §2"}, "[12]": {"tested_on": "Reh", "test": "Cell cycle effects, DNA content by flow cytometry", "assay_type": "cell-based", "settings": "Brusatol (25 ng/ml), 24 h", "experimental": "as §1, §2"}, "[13]": {"tested_on": "HL-60 cells", "test": "Withdrawal assays, growth and differentiation of HL-60 cells", "assay_type": "cell-based, human", "settings": "12.5 ng/ml", "experimental": "The irreversibility of brusatol effects on growth and differentiation of HL-60 cells was tested using withdrawal assays during a 4-day experiment.\nThe assay lasted for 4 days (96 h) and then, cells were analyzed for viability and differentiation markers. […] Results are shown as the mean of duplicate samples (±standard deviation)."}, "[14]": {"tested_on": "RS4;11", "test": "Cytotoxicity, viability by Trypan blue exclusion", "settings": "four days", "quoted_text": "as §6, §7, §5"}, "[15]": {"test": "Cytotoxicity, viability by Trypan blue exclusion", "settings": "human, RS4;11 cells, Cytotoxicity (IC50, ng/ml), four days", "quoted_text": "as §6, §7, §5"}, "[16]": {"test": "Cytotoxicity, viability by Trypan blue exclusion", "settings": "human, SUPB13 cells, Cytotoxicity (IC50, ng/ml), four days", "quoted_text": "as §6, §7, §5"}, "[17]": {"tested_on": "SUPB13", "test": "Cytotoxicity, viability by Trypan blue exclusion", "settings": "four days", "quoted_text": "as §6, §7, §5"}, "[18]": {"test": "Cytotoxicity, viability by Trypan blue exclusion", "settings": "human", "quoted_text": "Human blood (20 ml) was collected in heparinized sterile tubes and white blood cells were separated using Ficoll reagent (8 ml/5 ml blood diluted in 15 ml Hank's buffered solution). After centrifugation at low speed (1500 rpm) for 30 min, the white coat was removed and washed 3-times with Hank's buffered solution. The cell pellet was resuspended in RPMI 1640 medium supplemented with 10% FBS. This preparation contained >90% lymphocytes and <5% monocytes, as determined by Wright-Giemsa staining.\nas §7, §5"}, "[19]": {"tested_on": "JB6 cells", "settings": "dose-dependent manner; cited from earlier work"}, "[20]": {"tested_on": "HL-60", "test": "Cell cycle effects, DNA content by flow cytometry", "assay_type": "cell-based, human", "settings": "Brusatol (25 ng/ml), 24 h", "experimental": "as §1, §2"}, "[21]": {"settings": "human beings; single intravenous injection of 3 mg/m^2; cited from earlier work"}},
  "data": [
    {"smiles": "COC(=O)[C@@]12OC[C@]34[C@H]([C@@H](O)[C@@H]1O)[C@@]1(C)CC(=O)C(O)=C(C)[C@@H]1C[C@H]3OC(=O)[C@H](OC(=O)C=C(C)C)[C@@H]24", "note": "[compound 1, brusatol]", "values": [
      {"measurement": "IC50 at 4 days", "setting": "[1]", "value": "0.05 to 0.1", "unit": "µg/mL"},
      {"measurement": "Cytotoxicity (IC50, ng/ml)", "setting": "[2]", "value": "50 ± 0.9", "unit": "ng/mL"},
      {"measurement": "IC50 at 4 days", "setting": "[3]", "value": "0.05 to 0.1", "unit": "µg/mL"},
      {"measurement": "Cytotoxicity (IC50, ng/ml)", "setting": "[4]", "value": "100 ± 5.4", "unit": "ng/mL"},
      {"measurement": "Ap (sub-G1 apoptotic peak)", "setting": "[5]", "value": "Ap = 15.6 ± 0.2"},
      {"measurement": "G1", "setting": "[5]", "value": "G1 = 57.0 ± 0.4"},
      {"measurement": "G2/M", "setting": "[5]", "value": "G2/M = 7.1 ± 0.1"},
      {"measurement": "S", "setting": "[5]", "value": "S = 35.9 ± 0.6"},
      {"measurement": "Ap (sub-G1 apoptotic peak)", "setting": "[6]", "value": "Ap = 37.2 ± 0.8"},
      {"measurement": "G1", "setting": "[6]", "value": "G1 = 45.3 ± 0.8"},
      {"measurement": "G2/M", "setting": "[6]", "value": "G2/M = 7.3 ± 0.7"},
      {"measurement": "S", "setting": "[6]", "value": "S = 47.4 ± 0.1"},
      {"measurement": "G1", "setting": "[7]", "value": "G1 = 46.2 ± 0.6"},
      {"measurement": "G2/M", "setting": "[7]", "value": "G2/M = 5.6 ± 0.4"},
      {"measurement": "S", "setting": "[7]", "value": "S = 48.2 ± 0.3"},
      {"measurement": "G1", "setting": "[8]", "value": "G1 = 50.9 ± 0.4"},
      {"measurement": "G2/M", "setting": "[8]", "value": "G2/M = 3.4 ± 0.1"},
      {"measurement": "S", "setting": "[8]", "value": "S = 45.7 ± 0.2"},
      {"measurement": "G1", "setting": "[9]", "value": "G1 = 45.4 ± 1.8"},
      {"measurement": "G2/M", "setting": "[9]", "value": "G2/M = 8.0 ± 1.6"},
      {"measurement": "S", "setting": "[9]", "value": "S = 46.6 ± 0.2"},
      {"measurement": "G1", "setting": "[10]", "value": "G1 = 61.9 ± 2.1"},
      {"measurement": "G2/M", "setting": "[10]", "value": "G2/M = 8.7 ± 0.3"},
      {"measurement": "S", "setting": "[10]", "value": "S = 29.4 ± 1.8"},
      {"measurement": "G1", "setting": "[11]", "value": "G1 = 77.4 ± 1.8"},
      {"measurement": "G2/M", "setting": "[11]", "value": "G2/M = 4.5 ± 0.2"},
      {"measurement": "S", "setting": "[11]", "value": "S = 18.1 ± 2.1"},
      {"measurement": "G1", "setting": "[12]", "value": "G1 = 78.8 ± 1.2"},
      {"measurement": "G2/M", "setting": "[12]", "value": "G2/M= 3.2 ± 0.4"},
      {"measurement": "S", "setting": "[12]", "value": "S = 18.0 ± 0.6"},
      {"measurement": "cells induced to differentiate", "setting": "[13]; withdrawal after 48 h of exposure, 4-day experiment", "value": 41, "unit": "%"},
      {"measurement": "cells induced to differentiate", "setting": "[13]; without withdrawal", "value": 46, "unit": "%"},
      {"measurement": "Cytotoxicity (IC50, ng/ml)", "setting": "[14]", "value": "25 ± 2", "unit": "ng/mL"},
      {"measurement": "IC50 at 4 days", "setting": "[15]", "value": "< 0.025", "unit": "µg/mL"},
      {"measurement": "IC50 at 4 days", "setting": "[16]", "value": "< 0.025", "unit": "µg/mL"},
      {"measurement": "Cytotoxicity (IC50, ng/ml)", "setting": "[17]", "value": "20 ± 1.2", "unit": "ng/mL"},
      {"measurement": "viability at 3 days, 100 ng/ml", "setting": "[18]; peripheral blood lymphocytes stimulated with concanavalin A", "value": "~90", "unit": "%"},
      {"measurement": "IC50 at 3 days", "setting": "[18]; peripheral human lymphocytes", "value": "> 0.1", "unit": "µg/mL"},
      {"measurement": "TPA-induced anchorage-independent growth of JB6 cells", "setting": "[19]", "value": "inhibits"},
      {"measurement": "G1", "setting": "[20]", "value": "G1 = 68.7 ± 0.9"},
      {"measurement": "G2/M", "setting": "[20]", "value": "G2/M = 18.3 ± 1.1"},
      {"measurement": "S", "setting": "[20]", "value": "S = 13.0 ± 1.0"}
    ]},
    {"smiles": "COC(=O)[C@@]12OC[C@]34[C@H]([C@@H](O)[C@@H]1O)[C@@]1(C)CC(=O)C(O)=C(C)[C@@H]1C[C@H]3OC(=O)[C@H](OC(=O)/C=C(\\C)C(C)C)[C@@H]24", "note": "[compound 2, bruceantin]", "values": [
      {"measurement": "blood level", "setting": "[21]", "value": 22, "unit": "ng/mL"}
    ]}
  ]
}
